Reference: ChEMBL document CHEMBL2203185, “Development of sub-nanomolar dipeptidic ligands of neuropeptide FF receptors” (Bioorg Med Chem Lett, 2012)
Non-standard residues stand in square brackets, D forms with d. Residues, ends and D or L forms follow the SMILES beside them. Inp = O=C(O)C1CCNCC1

Assays:
Format in all cases: cell-based
[1] = biological target: T1, Neuropeptide FF receptor 2 (Homo sapiens, UniProt Q9Y5X5); assay: Displacement of [3H]FFRF-NH2 from human flag-tagged NPFF2 receptor expressed in CHO cells at 5 uM by scintillation counting
T1 sequence (Q9Y5X5 whole entry): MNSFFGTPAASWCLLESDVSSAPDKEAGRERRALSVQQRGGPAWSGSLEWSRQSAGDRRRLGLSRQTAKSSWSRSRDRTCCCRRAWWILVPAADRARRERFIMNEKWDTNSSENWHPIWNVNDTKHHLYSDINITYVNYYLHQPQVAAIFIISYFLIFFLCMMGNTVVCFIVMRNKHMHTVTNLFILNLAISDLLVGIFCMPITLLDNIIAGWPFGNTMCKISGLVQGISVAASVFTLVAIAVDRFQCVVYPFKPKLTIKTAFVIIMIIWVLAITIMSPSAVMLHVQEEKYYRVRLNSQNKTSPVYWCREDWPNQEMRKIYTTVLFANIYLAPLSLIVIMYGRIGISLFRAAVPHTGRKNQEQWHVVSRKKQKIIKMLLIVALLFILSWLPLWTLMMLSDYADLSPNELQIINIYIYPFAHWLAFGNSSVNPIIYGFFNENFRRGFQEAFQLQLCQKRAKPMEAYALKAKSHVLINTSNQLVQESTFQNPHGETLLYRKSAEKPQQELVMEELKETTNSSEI

[2] = biological target: T2, Neuropeptide FF receptor 1 (Homo sapiens, UniProt Q9GZQ6); assay: Displacement of [3H]FFRF-NH2 from human flag-tagged NPFF1 receptor expressed in CHO cells at 500 nM by scintillation counting
T2 sequence (Q9GZQ6 whole entry): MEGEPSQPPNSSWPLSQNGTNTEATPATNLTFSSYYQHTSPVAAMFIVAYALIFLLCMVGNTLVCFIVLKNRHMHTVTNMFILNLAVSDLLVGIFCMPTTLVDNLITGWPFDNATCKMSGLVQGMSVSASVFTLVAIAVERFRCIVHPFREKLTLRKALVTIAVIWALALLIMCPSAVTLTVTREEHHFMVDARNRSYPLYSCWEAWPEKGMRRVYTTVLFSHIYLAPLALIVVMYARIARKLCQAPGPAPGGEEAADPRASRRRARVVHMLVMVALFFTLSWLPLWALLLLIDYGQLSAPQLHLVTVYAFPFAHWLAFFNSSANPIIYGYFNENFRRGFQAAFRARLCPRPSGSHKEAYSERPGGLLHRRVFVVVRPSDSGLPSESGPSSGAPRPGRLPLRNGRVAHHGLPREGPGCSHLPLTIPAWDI

[3] = biological target: T1, Neuropeptide FF receptor 2; assay: Displacement of [3H]FFRF-NH2 from human flag-tagged NPFF2 receptor expressed in CHO cells at 500 nM by scintillation counting
[4] = biological target: T2, Neuropeptide FF receptor 1; assay: Displacement of [3H]FFRF-NH2 from human flag-tagged NPFF1 receptor expressed in CHO cells at 5 uM by scintillation counting

inhibition [1] [%] | inhibition [2] [%] | inhibition [3] [%] | inhibition [4] [%] | Structure (SMILES)
14 | 34 | 5 | 72 | Cc1ccc(CC(=O)N[C@@H](CCCNC(=N)N)C(=O)N[C@@H](Cc2ccccc2)C(N)=O)cc1
57 | 57 | 11 | 100 | N=C(N)NCCC[C@@H](NC(=O)C12CC3CC(CC(C3)C1)C2)C(=O)N[C@H](Cc1ccccc1)C(N)=O
48 | 35 | 38 | 91 | CC(C)(C)C(=O)N[C@@H](CCCNC(=N)N)C(=O)N[C@@H](Cc1ccccc1)C(N)=O
30 | 35 | 15 | 73 | N=C(N)NCCC[C@@H](NC(=O)c1ccccc1)C(=O)N[C@H](Cc1ccccc1)C(N)=O
21 | 18 | 1 | 71 | COc1ccc(C(=O)N[C@@H](CCCNC(=N)N)C(=O)N[C@@H](Cc2ccccc2)C(N)=O)cc1
38 | 0 | 17 | 61 | N=C(N)NCCC[C@H](NC(=O)Cc1ccc(O)c(O)c1)C(=O)N[C@@H](Cc1ccccc1)C(N)=O
27 | 3 | 6 | 41 | N=C(N)NCCC[C@H](NC(=O)/C=C/c1cccnc1)C(=O)N[C@@H](Cc1ccccc1)C(N)=O
85 | 60 | 40 | 97 | N=C(N)NCCC[C@H](NC(=O)C12CC3CC(CC(C3)C1)C2)C(=O)N[C@@H](Cc1ccccc1)C(N)=O
50 | 40 | 6 | 83 | N=C(N)NCCC[C@@H](NC(=O)c1ccc(-c2ccccc2)cc1)C(=O)N[C@H](Cc1ccccc1)C(N)=O
60 | 47 | 16 | 83 | N=C(N)NCCC[C@H](NC(=O)Cc1ccccc1Cl)C(=O)N[C@@H](Cc1ccccc1)C(N)=O
20 | 56 | 0 | 84 | N=C(N)NCCC[C@H](NC(=O)c1cccc(Cl)c1)C(=O)N[C@@H](Cc1ccccc1)C(N)=O
82 | 34 | 28 | 100 | N=C(N)NCCC[C@H](NC(=O)c1ccc2ccccc2n1)C(=O)N[C@@H](Cc1ccccc1)C(N)=O
38 | 0 | 2 | 75 | N=C(N)NCCC[C@H](NC(=O)c1ccc(Cl)cc1Cl)C(=O)N[C@@H](Cc1ccccc1)C(N)=O
43 | 14 | 4 | 68 | N=C(N)NCCC[C@H](NC(=O)c1ccc(C(=O)c2ccccc2)cc1)C(=O)N[C@@H](Cc1ccccc1)C(N)=O
34 | 19 | 4 | 77 | COc1ccc(/C=C/C(=O)N[C@@H](CCCNC(=N)N)C(=O)N[C@@H](Cc2ccccc2)C(N)=O)cc1OC
47 | 22 | 24 | 79 | N=C(N)NCCC[C@H](NC(=O)c1cnc2ccccc2c1)C(=O)N[C@@H](Cc1ccccc1)C(N)=O
52 | 26 | 5 | 82 | N=C(N)NCCC[C@H](NC(=O)Cc1ccccc1)C(=O)N[C@@H](Cc1ccccc1)C(N)=O
59 | 26 | 19 | 100 | N=C(N)NCCC[C@H](NC(=O)C1CCNCC1)C(=O)N[C@@H](Cc1ccccc1)C(N)=O (H-[Inp]-Arg-Phe-NH2)
15 | 20 | 0 | 43 | N=C(N)NCCC[C@H](NC(=O)c1ccc(-c2ccccc2)cc1)C(=O)N[C@@H](Cc1ccccc1)C(N)=O
49 | 35 | 12 | 98 | N=C(N)NCCC[C@H](NC(=O)c1nc2ccccc2[nH]1)C(=O)N[C@@H](Cc1ccccc1)C(N)=O
56 | 26 | 27 | 82 | N=C(N)NCCC[C@H](NC(=O)c1cccc(-c2ccccc2)c1)C(=O)N[C@@H](Cc1ccccc1)C(N)=O
82 | 40 | 37 | 90 | N=C(N)NCCC[C@H](NC(=O)c1cccc2ccccc12)C(=O)N[C@@H](Cc1ccccc1)C(N)=O
59 | 100 | 31 | 100 | N=C(N)NCCC[C@H](NC(=O)CCN1c2ccccc2Sc2ccccc21)C(=O)N[C@@H](Cc1ccccc1)C(N)=O
38 | 63 | 6 | 88 | N=C(N)NCCC[C@@H](NC(=O)c1cccc(-c2ccccc2)c1)C(=O)N[C@H](Cc1ccccc1)C(N)=O

inhibition [1] [%] | inhibition [2] [%] | inhibition [3] [%] | inhibition [4] [%] | Structure (SMILES)
21 | 18 | 14 | 52 | COc1ccc(CC(=O)N[C@@H](CCCNC(=N)N)C(=O)N[C@@H](Cc2ccccc2)C(N)=O)cc1
30 | 43 | 4 | 78 | N=C(N)NCCC[C@@H](NC(=O)Cc1ccccc1)C(=O)N[C@H](Cc1ccccc1)C(N)=O
50 | 42 | 19 | 89 | COc1cccc(CC(=O)N[C@@H](CCCNC(=N)N)C(=O)N[C@@H](Cc2ccccc2)C(N)=O)c1
28 | 18 | 0 | 56 | N=C(N)NCCC[C@H](NC(=O)c1ccc(O)c(O)c1)C(=O)N[C@@H](Cc1ccccc1)C(N)=O
77 | 25 | 17 | 82 | N=C(N)NCCC[C@H](NC(=O)/C=C/c1ccccc1O)C(=O)N[C@@H](Cc1ccccc1)C(N)=O
19 | 40 | 10 | 96 | COc1ccccc1C(=O)N[C@@H](CCCNC(=N)N)C(=O)N[C@@H](Cc1ccccc1)C(N)=O
23 | 42 | 3 | 92 | N=C(N)NCCC[C@H](NC(=O)c1ccco1)C(=O)N[C@@H](Cc1ccccc1)C(N)=O
37 | 27 | 16 | 92 | N=C(N)NCCC[C@H](NC(=O)Cc1ccccc1O)C(=O)N[C@@H](Cc1ccccc1)C(N)=O
70 | 85 | 8 | 92 | N=C(N)NCCC[C@@H](NC(=O)c1ccccc1-c1ccccc1)C(=O)N[C@H](Cc1ccccc1)C(N)=O
7 | 37 | 3 | 59 | N=C(N)NCCC[C@H](NC(=O)c1ccc(Cl)cc1)C(=O)N[C@@H](Cc1ccccc1)C(N)=O
33 | 44 | 13 | 100 | CCCCCCCCCCC(=O)N[C@@H](CCCNC(=N)N)C(=O)N[C@@H](Cc1ccccc1)C(N)=O
23 | 11 | 9 | 64 | N=C(N)NCCC[C@H](NC(=O)c1cccnc1)C(=O)N[C@@H](Cc1ccccc1)C(N)=O
28 | 8 | 0 | 70 | COc1ccc(CC(=O)N[C@@H](CCCNC(=N)N)C(=O)N[C@@H](Cc2ccccc2)C(N)=O)cc1OC
80 | 26 | 35 | 86 | N=C(N)NCCC[C@H](NC(=O)c1cc2ccccc2[nH]1)C(=O)N[C@@H](Cc1ccccc1)C(N)=O
63 | 62 | 9 | 100 | N=C(N)NCCC[C@H](NC(=O)Cc1ccc(Cl)cc1)C(=O)N[C@@H](Cc1ccccc1)C(N)=O
47 | 21 | 15 | 80 | N=C(N)NCCC[C@H](NC(=O)/C=C/c1cccc(O)c1)C(=O)N[C@@H](Cc1ccccc1)C(N)=O
67 | 25 | 12 | 77 | N=C(N)NCCC[C@H](NC(=O)c1ccc(Cl)c(Cl)c1)C(=O)N[C@@H](Cc1ccccc1)C(N)=O
30 | 96 | 22 | 100 | N=C(N)NCCC[C@H](NC(=O)c1ccccc1-c1ccccc1)C(=O)N[C@@H](Cc1ccccc1)C(N)=O
53 | 45 | 30 | 95 | CCCCCC(=O)N[C@@H](CCCNC(=N)N)C(=O)N[C@@H](Cc1ccccc1)C(N)=O
40 | 37 | 16 | 89 | N=C(N)NCCC[C@H](NC(=O)CC(c1ccccc1)c1ccccc1)C(=O)N[C@@H](Cc1ccccc1)C(N)=O
27 | 13 | 0 | 65 | COc1ccc(C(=O)N[C@@H](CCCNC(=N)N)C(=O)N[C@@H](Cc2ccccc2)C(N)=O)cc1OC
11 | 30 | 0 | 85 | N=C(N)NCCC[C@H](NC(=O)c1c(Cl)cccc1Cl)C(=O)N[C@@H](Cc1ccccc1)C(N)=O
33 | 34 | 0 | 88 | N=C(N)NCCC[C@H](NC(=O)C(c1ccccc1)c1ccccc1)C(=O)N[C@@H](Cc1ccccc1)C(N)=O
